Assay results: patent publication US20240194290A1, “HIDDEN ANTIBIOTICS IN THE HUMAN PROTEOME” (THE TRUSTEES OF THE UNIVERSITY OF PENNSYLVANIA, priority 2021, published 2024)
Ends that are not written are not given here.

Experiments:
A. baumannii ATCC19606 [1] = experiment: Outer membrane permeabilization (NPN uptake) assay; type: cell-based, Acinetobacter baumannii; details: peptides at MIC, compared to untreated control and polymyxin B
Experimental: FIG. 3. Synergy, resistance development and mechanism of action studies of encrypted peptides. […] (FIG. 3B) Evolution of resistance by A. baumannii to encrypted peptides derived from the CUB domain (red) or polymyxin B (gray) after 30 days of serial passaging in liquid nutrient broth. Peptides and antibiotics were used at sub-inhibitory concentrations. Cells were passaged every 48 h. […] (FIG. 3D) Cytoplasmic membrane depolarization effects of the encrypted peptides against A. baumannii. (FIG. 3E) NPN assays showing the effect of encrypted peptides derived from the CUB domain and natriuretic peptide on permeabilization of the outer membrane of A. baumannii.
In order to investigate the mode of action of encrypted peptides against bacterial cells, assays were performed to study their effects on the bacterial membrane. First, the ability of encrypted peptides to disrupt and depolarize the bacterial cytoplasmic membrane was assessed […]. 3,3′-dipropylthiadicarbocyanine iodide [DiSC3(5)] was used, a potentiometric fluorophore that accumulates and aggregates in the cytoplasmic membrane, quenching its fluorescence. Upon imbalances of the cytoplasmic membrane transmembrane potential, the fluorophore migrates to the cytoplasm or the outer environment, generating fluorescence. […]
Methods: Membrane depolarization assays. The cytoplasmic membrane depolarization activity of the peptides was determined by measurements of fluorescence of the membrane potential-sensitive dye, DiSC3(5). […] Thereafter, the cells (100 μL) were incubated for 15 min with 20 nmol L^−1 of DiSC3(5) until a stable reduction of fluorescence was achieved, indicating the incorporation of the dye into the bacterial membrane. Membrane depolarization was then monitored by observing the change in the fluorescence emission intensity of the membrane potential-sensitive dye, DiSC3(5) (λex=622 nm, λem=670 nm), after the addition of peptides (100 μL solution at MIC values). […] The membrane permeability of the peptides was determined by using the N-phenyl-1-napthylamine (NPN) uptake assay. […]

A. baumannii ATCC19606 [2] = experiment: Neutropenic thigh infection mouse model; type: in vivo, Acinetobacter baumannii; details: for anti-infective activity (FIG. 4E): alone, A. baumannii ATCC19606; for decrease of bacterial counts compared to untreated controls: mice, 25 μmol L^−1 intramuscular, three days post-treatment, A. baumannii
Source text: FIG. 4. Anti-infective activity and synergistic interactions of encrypted peptides in vivo. (FIG. 4A) Schematic of the skin abscess mouse model used to assess the anti-infective activity of selected encrypted peptides from plasma proteins. […] (FIG. 4C) Mouse weight was monitored throughout the experiment (2 days) to rule out potential toxic effects of the encrypted peptides. (FIG. 4D) Schematic of the neutropenic thigh infection mouse model used to assess the anti-infective activity of selected encrypted peptides from plasma proteins. […] (FIG. 4F) Mouse weight was monitored throughout the experiment (8 days) to rule out potential toxic effects of the encrypted peptides.
Next, the efficacy of the same encrypted peptides (SCUB1-SKE25 and SCUB3-MLP22) was assessed in monotherapy and in combination therapy in a murine thigh infection model (FIG. 4D). This preclinical model is sensitive, standardized, and widely used for assessing antibiotic translatability^43,44. Briefly, mice were rendered neutropenic by cyclophosphamide treatment prior to intramuscular infection with 10^6 cells mL^−1 of the bacterial pathogens P. aeruginosa and A. baumannii (FIG. 4E). Either a single dose of each encrypted peptide (at 25 μmol L^−1) or their combination (also at 25 μmol L^−1) were delivered to the infected site via intramuscular administration. Three days post-treatment, on average the peptides reduced the bacterial load of P. aeruginosa and A. baumannii by 4 and 2 orders of magnitude, respectively, compared to untreated mice.
Methods: Skin abscess infection mouse model. A. baumannii ATCC19606 and P. aeruginosa strain PAO1 were used to infect the murine skin. Briefly, bacteria were grown in tryptic soy broth (TSB) medium. Subsequently, cells were washed twice with sterile PBS (pH 7.4, 13,000 rpm for 1 min), and resuspended to a final concentration of 1×10^5 and 1×10^6 CFU/20 μL for A. baumannii and P. aeruginosa, respectively. Female CD-1 mice (six-weeks old) were anesthetized with isoflurane and had their backs shaved and a superficial linear skin abrasion was made with a needle in order to damage the stratum corneum and upper-layer of the epidermis. […] Animals were euthanized and the area of scarified skin was excised two- and four-days post-infection, homogenized using a bead beater for 20 minutes (25 Hz), and 10-fold serially diluted for CFU quantification. […] Prior to each injection, mice were anesthetized with isoflurane and monitored (respiratory rate and pedal reflexes). Next, we monitored the formation of the abscess and euthanized the mice. The infected area was excised three-days post-infection, homogenized using a bead beater for 20 min (25 Hz), and 10-fold serially diluted for CFU quantification. […]

MLPKSFIKLLRSKVSSFLRPYK [SCUB3-MLP22]
outer membrane permeabilization (NPN fluorescence) (A. baumannii ATCC19606 [1]): increased fluorescence
anti-infective activity (FIG. 4E) (A. baumannii ATCC19606 [2]): reduced infections
decrease of bacterial counts compared to untreated controls (A. baumannii ATCC19606 [2]): 3 orders of magnitude

SKEMFPRSFIKLLRSKVSRFLRPYK [SCUB1-SKE25]
outer membrane permeabilization (NPN fluorescence) (A. baumannii ATCC19606 [1]): increased fluorescence
anti-infective activity (FIG. 4E) (A. baumannii ATCC19606 [2]): reduced infections
decrease of bacterial counts compared to untreated controls (A. baumannii ATCC19606 [2]): 3 orders of magnitude
